Where a name gives a salt, the structure may show the parent alone. One block for each compound: values may come before it.
Tests used:
[1] = system: HUVEC cells stimulated with FGF-2; assay: FGF-2-induced in vitro proliferation of HUVEC cells; type: cell-based, human; details: HUVEC stimulated with FGF-2, ATP luminescence
Procedure: To do this, HUVEC human vein endothelial cells (promocell, C-12200) are seeded at a rate of 5000 cells per well of a 96-well plate (Biocoat collagen I cellware, Becton Dickinson 354650) in 100 μl of RPMI 1640 deprivation medium (Invitrogen, 31872-025) supplemented with 0.5% or 1% FCS, 2 mM glutamine, 1× sodium pyruvate (Invitrogen; 11360-039) and 1×NEAA (Invitrogen, 11140-035), overnight at 37° C. in the presence of 5% CO2. The following morning, the medium is suctioned-off and replaced with 50 μl of deprivation medium containing the antagonists at a 2× concentration, to which are added 50 μl of FGF-2 (R&D systems, 133-FB-025; Invitrogen, PHG0026) at 0.2 ng/ml (i.e. 2×). After 48 or 72 h, 100 μl of Cell Titer-GLO™ Luminescent Cell Viability Assay (Promega, G7571) are added for 10 min in order to measure, by means of a luminometer, the amount of ATP present in the cells and which is in relation to the number of cells per well corresponding to the cell proliferation.
The antagonists of the present invention are considered to be active as long as they are capable of inhibiting FGF-2-induced proliferation of HUVEC cells at a dose less than or equal to 300 nM.

OF1 female mice = assay: Model of inflammatory angiogenesis in mice (air pocket granuloma, carmine red dye); type: in vivo; details: for % inhibition of the angiogenic parameter (dye content) / % inhibition of the inflammatory parameter (mass of the granuloma): daily oral, mice; for dye content corresponding to the angiogenesis / weight of the granuloma (dry weight of the skin), inflammation part: one week of daily treatment
Procedure: The model described by Colville-Nash et al., in 1995, makes it possible to study pharmacological agents capable of modulating the occurrence of angiogenesis in an inflammatory context. The model is developed on OF1 female mice (Charles River Laboratories) weighing approximately 25 g, and by groups of 12. The animals are anaesthetized with sodium pentobarbital (60 mg/kg; Sanofi Nutrition Sante animale)) intraperitoneally. An air pocket is created on the back of the mouse by subcutaneous injection of 3 ml of air. After they have awoken, the animals receive a treatment generally by gavage, and receive an injection of 0.5 ml of Freund's adjuvant (Sigma) with 0.1% of croton oil (Sigma) in the pocket. Seven days later, the mice are again anaesthetized and placed on a hot plate at 40° C. One ml of carmine red (Aldrich Chemicals, 5% in 10% of gelatin) is injected into the tail vein. The animals are then placed at 4° C. for 2-3 hours. The skins are then taken and dried for 24 h in an oven at 56° C. The dry tissues are weighed and placed in 1.8 ml of digestion solution (2 mM dithiothreitol, 20 mM Na2HPO4, 1 mM EDTA, 12 U/ml papain) for 24 h. The dye is then dissolved in 0.2 ml of 5M NaOH. The skins are centrifuged at 2000 rpm for 10 min at ambient temperature. The supernatants are filtered through 0.2 μm cellulose acetate membranes. The filtrates are read in a spectrophotometer at 492 nm against a carmine red calibration range. Two parameters are studyed: the dry weight of the granuloma and the amount of dye after digestion of the tissues. The results are expressed as mean values (±sem). The differences between the groups are tested with an ANOVA followed by a Dunnett's test, of which the reference group is the “solvent control” group.
The FGF-R antagonists are evaluated between 1 and 50 mg/kg using methylcellulose/tween (0.6% v/v) as vehicle or any other vehicle which allows the active ingredient to be solubilized. The molecules are administered daily, orally (one or two times a day) by gavage. The antagonists of the present invention are considered to be active as long as they enable a significant reduction in the angiogenic parameter, i.e. a reduction in the amount of carmine red dye in the skins of the animals tested.

[2] = system: HUVEC cells stimulated with FGF-2; assay: FGF-2-induced in vitro angiogenesis of HUVEC cells; type: cell-based, human; details: HUVEC stimulated with FGF-2, 24 h, pseudotubule network length
Procedure: To do this, matrices composed of matrigel (growth factor reduced matrigel, Becton Dickinson 356230) and collagen (rat tail collagen type I, Becton Dickinson 354236) are deposited, at a rate of 160 μl, into each chamberslide well (Biocoat Cellware collagen, Type I, 8-well culturesides: Becton Dickinson 354630), or 60 μl per well of 96-well plates (Biocoat collagen I cellware, Becton Dickinson 354407). The matrix is prepared by mixing ⅓ of matrigel, 1 mg/ml final concentration of collagen, 0.1N NaOH (0.026× the volume of collagen in μl) and 1×PBS, and the volume is then adjusted with water. The gels are kept at 37° C. for 1 hour so as to allow them to polymerize. […] After 24 hours, the length of the network of microtubules formed was measured using a computer-assisted image analysis system (Imagenia Biocom, Courtaboeuf, France) and the total length of the pseudotubules in each well was determined. The average total length of the microcapillary network was calculated in μm for each condition corresponding to the average of 6 replicates. […]
In this experiment, the molecules are evaluated at 3 and 30 nM on induction of the angiogenesis of HUVEC human cells by FGF-2.

- melting point: 384 °C
Structure (SMILES): CCCn1c(=O)[nH]c2ccc(C(=O)c3ncc4ccc(C(=O)O)cn34)cc2c1=O [Compound No. 8, 3-[(2,4-Dioxo-3-propyl-1,2,3,4-tetrahydroquinazolin-6-yl)carbonyl]imidazo[1,5-a]pyridine-6-carboxylic acid]

Structure (SMILES): Cn1c(=O)n(Cc2ccc(F)cc2)c(=O)c2cc(C(=O)c3nc(-c4cccc(C(=O)[O-])c4)c4ccccn34)ccc21.[Na+] [Compound No. 49, Sodium Salt of 3-(3-{[3-(4-fluorobenzyl)-1-methyl-2,4-dioxo-1,2,3,4-tetrahydroquinazolin-6-yl]carbonyl}imidazo[1,5-a]pyridin-1-yl)benzoic acid]
- inhibition of proliferation as percentage of the control ([1]; 30 nM): 9%
- inhibition of proliferation as percentage of the control ([1]; 300 nM): 29%
- % inhibition of the angiogenic parameter (dye content) (OF1 female mice; 10 mg/kg, one week): 46%
- % inhibition of the inflammatory parameter (mass of the granuloma) (OF1 female mice; 10 mg/kg, one week): 40%
- dye content corresponding to the angiogenesis (OF1 female mice; 10 mg/kg): significantly reduce
- weight of the granuloma (dry weight of the skin), inflammation part (OF1 female mice; 10 mg/kg): significantly reduce

Structure (SMILES): CCCn1c(=O)[nH]c2ccc(C(=O)c3nc(-c4cccc(C(=O)[O-])c4)c4ccccn34)cc2c1=O.[Na+] [Compound No. 10, Sodium Salt of 3-{3-[(2,4-dioxo-3-propyl-1,2,3,4-tetrahydroquinazolin-6-yl)carbonyl]imidazo[1,5-a]pyridin-1-yl}benzoic acid]
- % inhibition of the angiogenic parameter (dye content) (OF1 female mice; 30 mg/kg): 19%
- % inhibition of the inflammatory parameter (mass of the granuloma) (OF1 female mice; 30 mg/kg): 19%

Structure (SMILES): CCCn1c(=O)n(CCOc2ccc(F)cc2)c(=O)c2cc(C(=O)c3nc(-c4cccc(C(=O)[O-])c4)c4ccccn34)ccc21.[Na+] [Compound No. 223, Sodium Salt of 3-[3-({3-[2-(4-fluorophenoxy)ethyl]-1-propyl-2,4-dioxo-1,2,3,4-tetrahydroquinazolin-6-yl}carbonyl)imidazo[1,5-a]pyridin-1-yl]benzoic acid]
- % inhibition of the angiogenic parameter (dye content) (OF1 female mice; 10 mg/kg, one week): 43%
- % inhibition of the inflammatory parameter (mass of the granuloma) (OF1 female mice; 10 mg/kg, one week): 25%

- melting point: 334 °C
Structure (SMILES): CCCn1c(=O)[nH]c2ccc(C(=O)c3nc(NS(C)(=O)=O)c4ccccn34)cc2c1=O [Compound No. 13, N-{3-[(2,4-Dioxo-3-propyl-1,2,3,4-tetrahydroquinazolin-6-yl)carbonyl]imidazo[1,5-a]pyridin-1-yl}methanesulphonamide]

Structure (SMILES): CCCn1c(=O)n(Cc2ccc(F)cc2)c(=O)c2cc(C(=O)c3nc(-c4cccc(C(=O)[O-])c4)c4ccccn34)ccc21.[Na+] [Compound No. 72, Sodium Salt of 3-(3-{[3-(4-fluorobenzyl)-1-propyl-2,4-dioxo-1,2,3,4-tetrahydroquinazolin-6-yl]carbonyl}imidazo[1,5-a]pyridin-1-yl)benzoic acid]
- inhibition of angiogenesis as a percentage of the control ([2]; 3 nM): 36%
- inhibition of angiogenesis as a percentage of the control ([2]; 30 nM): 24%
- inhibition of proliferation as percentage of the control ([1]; 30 nM): 38%
- inhibition of proliferation as percentage of the control ([1]; 300 nM): 55%
- % inhibition of the angiogenic parameter (dye content) (OF1 female mice; 10 mg/kg, one week): 43%
- % inhibition of the inflammatory parameter (mass of the granuloma) (OF1 female mice; 10 mg/kg, one week): 38%
- dye content corresponding to the angiogenesis (OF1 female mice; 10 mg/kg): significantly reduce
- weight of the granuloma (dry weight of the skin), inflammation part (OF1 female mice; 10 mg/kg): significantly reduce

- melting point: 267 °C
Structure (SMILES): Cn1c(=O)n(Cc2ccc(F)cc2)c(=O)c2cc(C(=O)c3nc(-c4cccnc4)c4ccccn34)ccc21 (as salt: hydrochloride) [Compound No. 113, 3-(4-Fluorobenzyl)-1-methyl-6-[(1-pyridin-3-ylimidazo[1,5-a]pyridin-3-yl)carbonyl]quinazoline-2,4(1H,3H)-dione]

- melting point: 276 to 277 °C
Structure (SMILES): CCCn1c(=O)[nH]c2ccc(C(=O)c3nc(-c4cccc(-c5nc(C)no5)c4)c4ccccn34)cc2c1=O [Compound No. 36, 6-({1-[3-(3-Methyl-1,2,4-oxadiazol-5-yl)phenyl]imidazo[1,5-a]pyridin-3-yl}carbonyl)-3-propylquinazoline-2,4(1H,3H)-dione]

- melting point: 305 °C
Structure (SMILES): CCCn1c(C)nc2ccc(C(=O)c3nc(-c4cccc(C(=O)O)c4)c4ccccn34)cc2c1=O [Compound No. 53, 3-{3-[(2-Methyl-4-oxo-3-propyl-3,4-dihydroquinazolin-6-yl)carbonyl]imidazo[1,5-a]pyridin-1-yl}benzoic acid]

- melting point: 304 °C
Structure (SMILES): CCCn1c(=O)[nH]c2ccc(C(=O)c3ncc4ccccn34)cc2c1=O [Compound No. 1, 6-(Imidazo[1,5-a]pyridin-3-ylcarbonyl)-3-propylquinazoline-2,4(1H,3H)-dione]

- melting point: 247 °C
Structure (SMILES): CN(C)CCNC(=O)c1cccc(-c2nc(C(=O)c3ccc4c(c3)c(=O)n(Cc3ccc(F)cc3)c(=O)n4C)n3ccccc23)c1.Cl

- melting point: 345 to 346 °C
Structure (SMILES): CCCn1c(=O)[nH]c2ccc(C(=O)c3nc(-c4cccc(C(N)=O)c4)c4ccccn34)cc2c1=O [Compound No. 29, 3-{3-[(2,4-Dioxo-3-propyl-1,2,3,4-tetrahydroquinazolin-6-yl)carbonyl]imidazo[1,5-a]pyridin-1-yl}benzamide]

- melting point: 238 °C
Structure (SMILES): CCCn1c(C)nc2ccc(C(=O)c3nc(-c4cccc(C(N)=O)c4)c4ccccn34)cc2c1=O [Compound No. 55, 3-{3-[(2-Methyl-4-oxo-3-propyl-3,4-dihydroquinazolin-6-yl)carbonyl]imidazo[1,5-a]pyridin-1-yl}benzamide]

- melting point: 289 °C
Structure (SMILES): O=C(c1ccc2nc[nH]c(=O)c2c1)c1ncc2ccccn12 [Compound No. 3, 6-(Imidazo[1,5-a]pyridin-3-ylcarbonyl)quinazolin-4(3H)-one]

- melting point: 215 °C
Structure (SMILES): Cl.Cn1c(=O)n(Cc2ccc(F)cc2)c(=O)c2cc(C(=O)c3nc(-c4cccc(C(=O)OCCN5CCOCC5)c4)c4ccccn34)ccc21

From patent US9452164B2, “Imidazopyridine derivatives, process for preparation thereof and therapeutic use thereof” (SANOFI, priority 2010, dated 2016)
